In paper PMC9425443 (RSC Advances, 2022):
Structures can show the parent of a compound that is named as a salt.

Tests used:
recombinant CYP142A1 = recombinant CYP142A1 (Mycobacterium tuberculosis, UniProt P9WPL5); conditions: pH 7.4
[1] = tested on: CC(C)CCC[C@@H](C)[C@H]1CC[C@H]2[C@@H]3CCC4=CC(=O)CC[C@]4(C)[C@H]3CC[C@]12C; assay: purified protein, by the assay type; conditions: pH 7.5

recombinant CYP142A1, sequence (P9WPL5 whole entry): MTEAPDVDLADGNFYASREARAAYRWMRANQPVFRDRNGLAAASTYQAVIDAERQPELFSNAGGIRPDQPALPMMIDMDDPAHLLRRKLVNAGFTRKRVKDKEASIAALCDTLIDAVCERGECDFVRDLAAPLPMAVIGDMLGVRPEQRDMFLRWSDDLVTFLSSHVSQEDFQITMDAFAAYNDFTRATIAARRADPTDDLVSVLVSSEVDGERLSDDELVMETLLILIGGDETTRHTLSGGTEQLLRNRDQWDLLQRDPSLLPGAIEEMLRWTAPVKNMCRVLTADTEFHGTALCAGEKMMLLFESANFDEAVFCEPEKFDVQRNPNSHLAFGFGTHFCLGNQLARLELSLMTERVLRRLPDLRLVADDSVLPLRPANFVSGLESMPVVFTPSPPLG

Compound	Kd (recombinant CYP142A1) [µM]	Km [1] [µM]	kcat [1] [s⁻¹]
CC(C)CCC[C@@H](C)[C@H]1CC[C@H]2[C@@H]3CC=C4C[C@@H](OS(=O)(=O)O)CC[C@]4(C)[C@H]3CC[C@]12C [Cholesteryl sulfate]	27 ± 6.9	–	–
(Mycobacterium tuberculosis H37Rv)	–	35 ± 5.4	0.128 ± 0.00717
Cholesteryl propionate	45 ± 7	–	–
